The text below walks through data of BindingDB's records for doi:10.1021/acs.jmedchem.9b00021 (2019).

The target of this assay is T1, Menin (Homo sapiens, UniProt O00255).
T1 sequence (O00255 whole entry): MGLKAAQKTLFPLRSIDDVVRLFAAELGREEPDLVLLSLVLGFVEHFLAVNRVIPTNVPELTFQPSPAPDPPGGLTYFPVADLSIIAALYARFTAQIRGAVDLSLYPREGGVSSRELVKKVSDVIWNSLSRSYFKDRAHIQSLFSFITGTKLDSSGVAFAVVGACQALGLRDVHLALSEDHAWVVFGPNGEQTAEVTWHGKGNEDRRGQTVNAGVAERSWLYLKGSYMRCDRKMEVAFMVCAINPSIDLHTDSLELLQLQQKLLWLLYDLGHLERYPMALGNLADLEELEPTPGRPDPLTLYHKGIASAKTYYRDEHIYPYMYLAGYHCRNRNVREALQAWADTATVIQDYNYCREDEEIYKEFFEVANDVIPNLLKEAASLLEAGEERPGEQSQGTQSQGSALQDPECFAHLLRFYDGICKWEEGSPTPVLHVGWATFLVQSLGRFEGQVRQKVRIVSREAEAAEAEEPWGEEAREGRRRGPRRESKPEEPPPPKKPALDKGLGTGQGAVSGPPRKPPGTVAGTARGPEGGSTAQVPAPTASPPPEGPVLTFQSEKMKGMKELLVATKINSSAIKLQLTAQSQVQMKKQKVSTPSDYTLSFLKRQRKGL
The assay can be described thus: Inhibition of FAM-probe binding to Menin (unknown origin) after 60 mins by fluorescence polarization competitive binding assay. (Fluorescence polarisation rises when a labelled molecule tumbles more slowly, as on binding a larger partner.)

Regarding `CC(=O)O[C@@H]1CCC[C@H]1[C@](C#N)(c1ccccc1)C1CCN(CC2CN(c3ccc(C#N)cc3)C2)CC1`, the IC50 (as a rule, the concentration needed to halve the response being measured) amounted to 3500 nM and the affinity corresponds to a Ki of 1100 nM.
